Experimental data reported in patent publication US7332608B2, “Anthranilamides and methods of their use” (SANOFI-AVENTIS Deutschland GmbH, priority 2001, dated 2008).

Biological target: T1, Human Kv1.5 channels (Homo sapiens, UniProt P22460)
T1 construct: expressed in transfected cells; host or cells: Xenopus laevis oocytes injected with in vitro synthesized Kv1.5-encoding RNA
Experiment: Kv1.5 currents in Xenopus oocytes, two-microelectrode voltage clamp
Assay type: cell-based
Settings: human Kv1.5 expressed in Xenopus laevis oocytes; voltage jumps 500 ms to 0 mV and 40 mV; room temperature; Hill equation
Method: Human Kv1.5 channels were expressed in Xenopus oocytes. For this purpose, firstly ooytes were isolated from Xenopus laevis and were defolliculated. Kv1.5-encoding RNA which had been synthesized in vitro was then injected into these oocytes. After 1-7 days of Kv1.5 protein expression, the Kv1.5 currents were measured on the oocytes by the two-microelectrode voltage clamp technique. The Kv1.5 channels were for this purpose usually activated with voltage jumps lasting 500 ms to 0 mV and 40 mV. A solution of the following composition flowed through the bath: NaCl 96 mM, KCl 2 mM, CaCl2 1.8 mM, MgCl2 1 mM, HEPES 5 mM (titrated to pH 7.4 with NaOH). These experiments were carried out at room temperature. The following were employed for data acquisition and analysis: geneclamp amplifier (Axon Instruments, Foster City, USA) and MacLab D/A converter and software (ADInstruments, Castle Hill, Australia). The compounds of the invention were tested by adding them in various concentrations to the bath solution. The effects of the compounds were calculated as percentage inhibition of the Kv1.5 control current which was obtained when no compound was added to the solution. The data were then extrapolated using the Hill equation in order to determine the inhibitory concentrations IC50 for the respective compounds.

T1 sequence (P22460 whole entry): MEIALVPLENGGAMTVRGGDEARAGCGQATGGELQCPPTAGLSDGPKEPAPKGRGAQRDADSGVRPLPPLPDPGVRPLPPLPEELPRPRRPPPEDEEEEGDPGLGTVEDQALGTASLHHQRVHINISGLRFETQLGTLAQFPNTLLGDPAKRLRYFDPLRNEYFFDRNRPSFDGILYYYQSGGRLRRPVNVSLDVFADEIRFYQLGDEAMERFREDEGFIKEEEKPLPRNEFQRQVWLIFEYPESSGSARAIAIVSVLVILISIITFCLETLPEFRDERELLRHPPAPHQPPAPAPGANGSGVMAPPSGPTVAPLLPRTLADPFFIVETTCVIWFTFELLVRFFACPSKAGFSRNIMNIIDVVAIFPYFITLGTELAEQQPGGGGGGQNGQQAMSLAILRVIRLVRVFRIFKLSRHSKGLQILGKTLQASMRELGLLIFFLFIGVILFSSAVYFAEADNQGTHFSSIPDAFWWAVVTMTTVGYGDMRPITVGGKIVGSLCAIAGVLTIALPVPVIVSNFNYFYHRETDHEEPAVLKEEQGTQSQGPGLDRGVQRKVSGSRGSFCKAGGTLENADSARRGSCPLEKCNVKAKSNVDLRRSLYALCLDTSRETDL

Row | SMILES | IC50
1 | C[C@H](NC(=O)c1cc(Cl)ccc1NS(=O)(=O)c1ccccc1)c1ccccc1 [Example 1, (S)-2-Phenylsulfonylamino-5-chloro-N-(1-phenylethyl)benzamide] | 5.5 µM
2 | C[C@@H](NC(=O)c1cc(Cl)ccc1NS(=O)(=O)c1ccccc1)c1ccccc1 [Example 2, (R)-2-Phenylsulfonylamino-5-chloro-N-(1-phenylethyl)benzamide] | 8.2 µM
3 | CC[C@H](NC(=O)c1cc(Cl)ccc1NS(=O)(=O)c1ccccc1)c1ccccc1 [Example 3, (S)-2-Phenylsulfonylamino-5-chloro-N-(1-phenylpropyl)benzamide] | 2.8 µM
4 | COc1ccc([C@H](C)NC(=O)c2cc(Cl)ccc2NS(=O)(=O)c2ccccc2)cc1 [Example 5, (S)-2-Phenylsulfonylamino-5-chloro-N-[1-(4-methoxyphenyl)ethyl]-benzamide] | 4.5 µM
5 | O=C(NC(c1ccccc1)c1ccccn1)c1cc(Cl)ccc1NS(=O)(=O)c1ccccc1 (stereo not drawn) [Example 7, 2-Phenylsulfonylamino-5-chloro-N-(phenylpyridin-2-ylmethyl)benzamide] | 5.1 µM
6 | CCN(C(=O)c1ccccc1NS(=O)(=O)c1ccc(Cl)cc1)C1CCCCC1 [Example 11] | 8 µM
7 | CCN(C(=O)c1ccccc1NS(=O)(=O)c1ccc(C)cc1)C1CCCCC1 [Example 12] | 5.4 µM
8 | O=C(NC1CCCCC1)c1cc(Cl)ccc1NS(=O)(=O)c1ccccc1 [Example 17] | 7.5 µM
9 | COc1ccc(S(=O)(=O)Nc2c(C)cccc2C(=O)NC(C)c2ccccc2)cc1 (stereo not drawn) [Example 19] | 4.2 µM
10 | CCCCS(=O)(=O)Nc1cc(C)ccc1C(=O)NC1CCCCC1 [Example 20] | 7.7 µM
11 | Cc1cccc(NS(=O)(=O)c2ccc(Cl)cc2)c1C(=O)NC(C)c1ccccc1 (stereo not drawn) [Example 23] | 5 µM
12 | CCC(NC(=O)c1c(C)cccc1NS(=O)(=O)c1ccc(Cl)cc1)c1ccccc1 (stereo not drawn) [Example 24] | 3 µM
13 | COc1ccc(S(=O)(=O)Nc2cc(C)ccc2C(=O)NC2CCCCC2)cc1 [Example 25] | 3.4 µM
14 | CCC(NC(=O)c1cc(OC)ccc1NS(=O)(=O)c1ccc(C)cc1)c1ccccc1 (stereo not drawn) [Example 26] | 0.6 µM
15 | COc1ccc(NS(=O)(=O)c2ccc(C)cc2OC)c(C(=O)NC2CCC(C)CC2)c1 (stereo not drawn) [Example 27] | 5.6 µM
16 | Cc1ccc(S(=O)(=O)Nc2ccccc2C(=O)NC(C)c2ccccc2)cc1 (stereo not drawn) [Example 28] | 3.2 µM
17 | COc1cc(C)ccc1S(=O)(=O)Nc1ccc(Cl)cc1C(=O)NCCOCc1ccccc1 [Example 29] | 5.1 µM

Row | SMILES | IC50
18 | Cc1ccc(S(=O)(=O)Nc2ccccc2C(=O)N(Cc2ccccc2)Cc2nc3ccccc3[nH]2)cc1 [Example 35] | 2 µM
19 | Cc1ccc(S(=O)(=O)Nc2ccccc2C(=O)N(Cc2ccccc2)Cc2ccc(C)o2)cc1 [Example 36] | 2 µM
20 | COc1ccc(NS(=O)(=O)c2ccc(C)cc2)c(C(=O)N(Cc2ccccc2)Cc2nccn2C)c1 [Example 41] | 1.9 µM
21 | COc1ccc(NS(=O)(=O)c2cccc(C(F)(F)F)c2)c(C(=O)N(Cc2ccccc2)Cc2nccn2C)c1 [Example 43] | 5.4 µM
22 | O=C(c1ccccc1NS(=O)(=O)c1ccc(Cl)cc1)N(Cc1ccccc1)Cc1cccnc1 [Example 44] | 2.9 µM
23 | Cc1ccc(S(=O)(=O)Nc2ccc(F)cc2C(=O)N(Cc2ccccc2)Cc2cccnc2)cc1 [Example 46] | 1.2 µM
24 | COc1ccc(S(=O)(=O)Nc2cccc(C)c2C(=O)N(Cc2ccccc2)Cc2cccnc2)cc1 [Example 47] | 4.7 µM
25 | Cc1ccc(S(=O)(=O)Nc2ccccc2C(=O)N(Cc2ccncc2)CC2CC2)cc1 [Example 48] | > 10 µM
26 | Cc1ccc(S(=O)(=O)Nc2ccccc2C(=O)N(CCc2cccnc2)CC2CC2)cc1 [Example 49] | 6.3 µM
27 | CCC(Cc1ccccc1)NC(=O)c1cc(OC)ccc1NS(=O)(=O)c1ccc(C)cc1 (stereo not drawn) [Example 51] | 3.6 µM
28 | CCCCS(=O)(=O)Nc1ccc(C)cc1C(=O)NC1CCCCC1 [Example 54, 2-(Butylsulfonylamino)-N-cyclohexyl-5-methylbenzamide] | 4 µM
29 | CCCCS(=O)(=O)Nc1ccccc1C(=O)N[C@@H](CC)c1ccccc1 [Example 58] | > 10 µM
30 | CC[C@H](NC(=O)c1ccccc1NS(=O)(=O)c1cccc(C)c1)c1ccccc1 [Example 59] | 1.7 µM
31 | CC[C@H](NC(=O)c1ccccc1NS(=O)(=O)c1cccc2ccccc12)c1ccccc1 [Example 62] | 3.5 µM
32 | CC[C@H](NC(=O)c1ccccc1NS(=O)(=O)c1cccc2c(N(C)C)cccc12)c1ccccc1 [Example 65] | 4.8 µM
33 | CC[C@H](NC(=O)c1ccccc1NS(=O)(=O)c1ccc(C(F)(F)F)cc1)c1ccccc1 [Example 66] | 4 µM

Second part, the molecule after the results:

Row | IC50 | SMILES
34 | 4.1 µM | CC[C@@H](NC(=O)c1cc(Cl)ccc1NS(=O)(=O)c1ccccc1)c1ccccc1 [Example 4, (R)-2-Phenylsulfonylamino-5-chloro-N-(1-phenylpropyl)benzamide]
35 | 8.2 µM | COc1ccc([C@@H](C)NC(=O)c2cc(Cl)ccc2NS(=O)(=O)c2ccccc2)cc1 [Example 6]
36 | 0.9 µM | Cc1ccc(S(=O)(=O)Nc2ccccc2C(=O)N(Cc2ccccc2)Cc2cccnc2)cc1 [Example 8, N-Benzyl-N-pyridin-3-ylmethyl-2-(toluene-4-sulfonylamino)benzamide]
37 | 4.9 µM | COc1ccc(S(=O)(=O)Nc2cc(C)ccc2C(=O)NC(C)c2ccccc2)cc1 (stereo not drawn) [Example 9]
38 | 2.5 µM | CCC(NC(=O)c1cccc(C)c1NS(=O)(=O)c1ccc(Cl)cc1)c1ccccc1 (stereo not drawn) [Example 10]
39 | 8.5 µM | Cc1ccc(S(=O)(=O)Nc2ccc(F)cc2C(=O)NC2CCCCC2)cc1 [Example 14]
40 | 7.8 µM | CCN(C(=O)c1cc(F)ccc1NS(=O)(=O)c1ccc(C)cc1)C1CCCCC1 [Example 15]
41 | 6.4 µM | CCN(C(=O)c1cc(Cl)ccc1NS(=O)(=O)c1ccc(C)cc1)C1CCCCC1 [Example 16]
42 | 6.7 µM | CCN(C(=O)c1cc(Cl)ccc1NS(=O)(=O)c1ccccc1)C1CCCCC1 [Example 18]
43 | 5.2 µM | Cc1ccc(NS(=O)(=O)c2ccccc2)c(C(=O)NC2CCCCC2)c1 [Example 21]
44 | 4.8 µM | Cc1cccc(NS(=O)(=O)c2ccc(Cl)cc2)c1C(=O)NC1CCCCC1 [Example 22]
45 | 0.7 µM | Cc1ccc(S(=O)(=O)Nc2ccccc2C(=O)N(Cc2ccccc2)Cc2nccn2C)cc1 [Example 30]
46 | 2.6 µM | Cc1ccc(S(=O)(=O)Nc2ccccc2C(=O)N(Cc2ccccc2)CC2CCCCC2)cc1 [Example 31]
47 | 8.5 µM | Cc1ccc(S(=O)(=O)Nc2ccccc2C(=O)N(CCCn2ccnc2)Cc2ccccc2)cc1 [Example 32]
48 | 6.5 µM | Cc1ccc(S(=O)(=O)Nc2ccccc2C(=O)N(Cc2ccccc2)Cc2ccncc2)cc1 [Example 33]
49 | 3.1 µM | Cc1ccc(S(=O)(=O)Nc2ccccc2C(=O)N(Cc2cccnc2)CC2CC2)cc1 [Example 34]
50 | 1.9 µM | Cc1ccc(S(=O)(=O)Nc2ccccc2C(=O)N(Cc2ccccc2)CC2CC2)cc1 [Example 37]
51 | 1.6 µM | Cc1ccc(S(=O)(=O)Nc2ccccc2C(=O)N(Cc2ccccc2)Cc2ccco2)cc1 [Example 38]

Row | IC50 | SMILES
52 | > 10 µM | Cc1ccc(S(=O)(=O)Nc2ccccc2C(=O)N(CCCn2ccnc2C)Cc2ccccc2)cc1 [Example 39]
53 | 0.8 µM | Cc1ccc(S(=O)(=O)Nc2cc(C)ccc2C(=O)N(Cc2ccccc2)Cc2nccn2C)cc1 [Example 40]
54 | 5 µM | Cc1ccc(S(=O)(=O)Nc2ccccc2C(=O)N(CCc2ccccn2)CC2CC2)cc1 [Example 42]
55 | 2.5 µM | Cc1ccc(S(=O)(=O)Nc2ccc(Cl)cc2C(=O)N(Cc2ccccc2)Cc2cccnc2)cc1 [Example 45]
56 | 0.7 µM | COc1ccc(S(=O)(=O)Nc2ccccc2C(=O)N(Cc2ccccc2)Cc2cccnc2)cc1 [Example 50]
57 | 3 µM | CCC(Cc1ccccc1)NC(=O)c1ccccc1NS(=O)(=O)c1ccccc1 (stereo not drawn) [Example 52]
58 | 2.5 µM | CCC(NC(=O)c1cc(OC)ccc1NS(=O)(=O)c1ccc(C)cc1)c1ccncc1 (stereo not drawn) [Example 53]
59 | 4.6 µM | CCCCS(=O)(=O)Nc1ccc(C)cc1C(=O)NC(C)c1ccccc1 (stereo not drawn) [Example 55]
60 | 5 µM | CCCCS(=O)(=O)N(CC)c1ccccc1C(=O)N[C@@H](CC)c1ccccc1 [Example 57]
61 | 0.7 µM | CC[C@H](NC(=O)c1ccccc1NS(=O)(=O)c1ccc(C)cc1)c1ccccc1 [Example 60]
62 | 5.6 µM | CC[C@H](NC(=O)c1ccccc1NS(=O)(=O)c1ccc2ccccc2c1)c1ccccc1 [Example 61]
63 | 1.7 µM | CC[C@H](NC(=O)c1ccccc1NS(=O)(=O)c1cccc(OC)c1)c1ccccc1 [Example 63]
64 | 0.6 µM | CC[C@H](NC(=O)c1ccccc1NS(=O)(=O)c1ccc(OC)cc1)c1ccccc1 [Example 64]
65 | 5.8 µM | CC[C@H](NC(=O)c1ccccc1NS(=O)(=O)c1ccc(OC(F)(F)F)cc1)c1ccccc1 [Example 67]
66 | 2.9 µM | CC[C@H](NC(=O)c1ccccc1NS(=O)(=O)c1ccc(Cl)cc1)c1ccccc1 [Example 68]
67 | 1.3 µM | CC[C@H](NC(=O)c1ccccc1NS(=O)(=O)c1ccccc1)c1ccccc1 [Example 69]
68 | 3.8 µM | COc1cccc(S(=O)(=O)Nc2ccccc2C(=O)N(Cc2ccccc2)Cc2cccnc2)c1 [Example 70]
69 | 6.9 µM | CCCCS(=O)(=O)Nc1ccccc1C(=O)N(Cc1ccccc1)Cc1cccnc1 [Example 71]
